# Experimental data: publication PMC8388771, “Cationic Peptidomimetic Amphiphiles Having a N-Aryl- or N-Naphthyl-1,2,3-Triazole Core Structure Targeting Clostridioides (Clostridium) difficile: Synthesis, Antibacterial Evaluation, and an In Vivo C. difficile Infection Model” (Antibiotics, 2021)
# Read-outs that look alike come from different tables or passages of the source.
# Tests used:
# [1] = system: C. difficile strain M7404 (RT027); set-up: method as in ref 30 (compound 1), 19 (compound 3); conditions: Table 2 footnote g; ref 30 (compound 1), 19 (compound 3); cited from earlier work
# [2] = system: C. difficile strain R20291; set-up: method as in ref 30 (compound 1), 19 (compound 3); conditions: Table 2 footnote h; ref 30 (compound 1), 19 (compound 3); cited from earlier work
# S. aureus ATCC 29213 [3] = system: S. aureus ATCC 29213; set-up: method as in ref 30 (1), 31 (2, 4), 19 (3); conditions: Table 2; ref 30 (1), 31 (2, 4), 19 (3); cited from earlier work
# E. faecalis ATCC 29212 [4] = system: E. faecalis ATCC 29212; set-up: method as in ref 30 (1), 31 (2, 4), 19 (3); conditions: Table 2; ref 30 (1), 31 (2, 4), 19 (3); cited from earlier work
# C. difficile [5] = conditions: Figure 1; cited from earlier work
# E. coli ATCC 25922 [6] = system: E. coli ATCC 25922; set-up: method as in ref 30 (1), 31 (2, 4), 19 (3); conditions: Table 2; ref 30 (1), 31 (2, 4), 19 (3); cited from earlier work
# S. pneumoniae ATCC 49619 [7] = system: S. pneumoniae ATCC 49619; set-up: method as in ref 30 (1), 31 (2, 4), 19 (3); conditions: Table 2; ref 30 (1), 31 (2, 4), 19 (3); cited from earlier work
# [8] = set-up: method as in PMID 30901686; conditions: cited from earlier work; for appearance in the solubility assay: Figure 1
# HEK293 cells [9] = system: HEK293 cells; set-up: method as in PMID 30831407; conditions: Table 2; cited from earlier work
# sheep erythrocytes = conditions: cited from earlier work; for % hemolysis at 50 µg/mL: Table 2 HC50 column, footnote i, sheep erythrocytes; for in vitro hemolytic activity: in words
# C. difficile [10] = system: C. difficile; set-up: method as in PMID 30901686; conditions: murine CDI model, cited from earlier work; for survival rate at 24 h: 10% DMSO group 0%
# S. aureus NCTC 10442 [11] = system: S. aureus NCTC 10442; set-up: method as in ref 31 (2, 4), 19 (3); conditions: Table 2; MRSA; ref 31 (2, 4), 19 (3); cited from earlier work
# S. aureus ATCC 43300 [12] = system: S. aureus ATCC 43300; set-up: method as in PMID 30831407; conditions: Table 2; MRSA; cited from earlier work
# C. difficile 132 (RT027) [13] = system: C. difficile 132 (RT027); set-up: method as in PMID 30831407; conditions: Table 2; cited from earlier work
# [14] = system: K. pneumoniae ATCC 700603; assay: CO-ADD MIC assay, K. pneumoniae ATCC 700603; type: cell-based; conditions: Klebsiella pneumoniae, ATCC700603, Table S1, multi-drug resistant
# Outline: (§1)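 CO-ADD whole-cell growth-inhibition MIC screening of the peptidomimetics against MRSA and Gram-negative strains.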
# E. coli ATCC 25922 [15] = assay: Primary MIC assay, E. coli ATCC 25922; type: cell-based; conditions: Escherichia coli, ATCC25922; Table 1; read-out: MIC E. coli ATCC 25922
# E. faecalis ATCC 29212 [16] = assay: Primary MIC assay, E. faecalis ATCC 29212; type: cell-based, Enterococcus faecalis; conditions: Table 1
# Outline: (§2)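 MIC values come from primary screening run to CLSI standards for aerobic and anaerobic bacteria, with vancomycin QC ranges checked.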
# C. albicans ATCC 90028 = assay: CO-ADD MIC assay, C. albicans ATCC 90028; type: cell-based
# Outline: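 Whole-cell growth inhibition (MIC) screening run by CO-ADD. Fluconazole served as antifungal positive control.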
# human erythrocytes = assay: Hemolysis assay, HC50 determination; type: cell-based
# Method: Hemolysis assay (human erythrocytes)–HC50 determination. These were performed as described previously.
# A. baumannii ATCC 19606 = assay: CO-ADD MIC assay, A. baumannii ATCC 19606; type: cell-based; conditions: Acinetobacter baumannii, ATCC19606, Table S1
# Outline: as §1
# E. coli ATCC 25922 [17] = assay: CO-ADD MIC assay, E. coli ATCC 25922; type: cell-based
# Outline: as §1
# S. aureus ATCC 29213 [18] = assay: Primary MIC assay, S. aureus ATCC 29213; type: cell-based; conditions: Staphylococcus aureus, ATCC29213; Table 1; read-out: MIC S. aureus ATCC 29213
# Outline: as §2
# C. difficile 132 (RT027) [19] = assay: Primary MIC assay, C. difficile 132 (RT027); type: cell-based, Clostridioides difficile; conditions: Clostridioides difficile; Table 1; read-out: MIC C. difficile 132 (RT027)
# Outline: as §2
# S. aureus ATCC 43300 [20] = assay: CO-ADD MIC assay, S. aureus ATCC 43300 (MRSA); type: cell-based; conditions: Table S1, MRSA, CO-ADD
# Outline: as §1
# S. aureus NCTC 10442 [21] = assay: Primary MIC assay, S. aureus NCTC 10442 (MRSA); type: cell-based; conditions: Staphylococcus aureus; Table 1; MRSA; read-out: MIC S. aureus NCTC 10442
# Outline: as §2
# [22] = Cytotoxicity (CC50) assay by CO-ADD; type: cell-based, human; conditions: human, HEK293 cells (ATCC CRL-1573); Table S1; HEK293 cells
# HEK293 cells [23] = assay: Cytotoxicity (CC50) assay by CO-ADD; type: cell-based, human; conditions: Table 1; cytotoxicity on HEK293 cells, tested at ≤32 µg/mL
# P. aeruginosa ATCC 27853 = assay: CO-ADD MIC assay, P. aeruginosa ATCC 27853; type: cell-based; conditions: Pseudomonas aeruginosa, ATCC27853, Table S1
# Outline: as §1
# S. pneumoniae ATCC 49619 [24] = assay: Primary MIC assay, S. pneumoniae ATCC 49619; type: cell-based, Streptococcus pneumoniae; conditions: Table 1
# Outline: as §2
# C. difficile ATCC 700057 = assay: Primary MIC assay, C. difficile ATCC 700057; type: cell-based, Clostridioides difficile; conditions: Clostridioides difficile, ATCC700057; Table 1; read-out: MIC C. difficile ATCC 700057
# Outline: as §2
smiles,measurement,setting,value
CC(C)CCOC(=O)[C@H](CC(C)C)NC(=O)[C@@H](CCCNC(=N)N)NC(=O)[C@@H](CCCCN)NC(=O)COc1ccc2ccccc2c1-c1c(OCCC(C)C)ccc2ccccc12 [Compound 1],MIC C. difficile strain M7404 (RT027),[1],8 ^g μg/mL
same,MIC C. difficile strain R20291 (RT207),[2],8 ^h μg/mL
same,MIC S. aureus ATCC 29213,S. aureus ATCC 29213 [3],2 µg/mL
same,MIC E. faecalis ATCC 29212,E. faecalis ATCC 29212 [4],2 µg/mL
same,MIC against C. difficile,C. difficile [5],8 µg/mL
same,MIC E. coli ATCC 25922,E. coli ATCC 25922 [6],16 µg/mL
same,MIC S. pneumoniae ATCC 49619,S. pneumoniae ATCC 49619 [7],2 µg/mL
same,appearance in the solubility assay,[8],homogenous suspension
same,SR = solubility ratio relative to that of compound 1,[8],1
CC(C)CCOc1ccccc1-c1ccccc1OCc1cn(C[C@@H](CCCCN)NC(=O)[C@@H](CCCNC(=N)N)n2cc(C3CCCCC3)nn2)nn1 [Compound 4],CC50,HEK293 cells [9],14.2 µg/mL
same,% hemolysis at 50 µg/mL,sheep erythrocytes,23% ^i
same,in vitro hemolytic activity,sheep erythrocytes,low
same,survival rate at 24 h,C. difficile [10],60%
same,survival rate after 48 h,C. difficile [10],0%
same,MIC S. aureus NCTC 104422,S. aureus NCTC 10442 [11],4 µg/mL
same,MIC S. aureus ATCC 29213,S. aureus ATCC 29213 [3],8 µg/mL
same,MIC E. faecalis ATCC 29212,E. faecalis ATCC 29212 [4],8 µg/mL
same,MIC S. aureus ATCC 43300,S. aureus ATCC 43300 [12],4 µg/mL
same,MIC against C. difficile,C. difficile [5],4 µg/mL
same,MIC E. coli ATCC 25922,E. coli ATCC 25922 [6],8 µg/mL
same,MIC S. pneumoniae ATCC 49619,S. pneumoniae ATCC 49619 [7],4 µg/mL
same,MIC C. difficile 132 (RT027),C. difficile 132 (RT027) [13],8 µg/mL
same,appearance in the solubility assay,[8],homogenous suspension
same,SR = solubility ratio relative to that of compound 1,[8],4
CC(C)CCOc1ccc2ccccc2c1-c1c(OCC(=O)N[C@H](CCCNC(=N)N)Cn2cc(-c3ccccc3)nn2)ccc2ccccc12 [Compound 3],MIC C. difficile strain M7404 (RT027),[1],8 ^g μg/mL
same,Haemolysis,sheep erythrocytes; Figure 1,86%
same,in vitro hemolytic activity,sheep erythrocytes,high
same,MIC C. difficile strain R20291 (RT207),[2],8 ^h μg/mL
same,MIC S. aureus NCTC 104422,S. aureus NCTC 10442 [11],2 µg/mL
same,MIC S. aureus ATCC 29213,S. aureus ATCC 29213 [3],2 µg/mL
same,MIC E. faecalis ATCC 29212,E. faecalis ATCC 29212 [4],4 µg/mL
same,MIC against C. difficile,C. difficile [5],8 µg/mL
same,MIC E. coli ATCC 25922,E. coli ATCC 25922 [6],>128 µg/mL
same,MIC S. pneumoniae ATCC 49619,S. pneumoniae ATCC 49619 [7],8 µg/mL
same,appearance in the solubility assay,[8],flocculation
same,SR = solubility ratio relative to that of compound 1,[8],1
same,solubility during preparation in a 10% DMSO solution,[8]; precipitation,poor solubility
CC(C)CCOc1ccc2ccccc2c1-c1c(OCc2cn(C[C@@H](CCCCN)NC(=O)[C@@H](CCCNC(=N)N)NC(=O)CCc3ccccc3)nn2)ccc2ccccc12 [Compound 2],CC50,HEK293 cells [9],27.4 µg/mL
same,% hemolysis at 50 µg/mL,sheep erythrocytes,94% ^i
same,survival rate at 24 h,C. difficile [10],50%
same,MIC S. aureus NCTC 104422,S. aureus NCTC 10442 [11],4 µg/mL
same,MIC S. aureus ATCC 29213,S. aureus ATCC 29213 [3],4 µg/mL
same,MIC E. faecalis ATCC 29212,E. faecalis ATCC 29212 [4],4 µg/mL
same,MIC S. aureus ATCC 43300,S. aureus ATCC 43300 [12],2 µg/mL
same,MIC against C. difficile,C. difficile [5],8 µg/mL
same,MIC E. coli ATCC 25922,E. coli ATCC 25922 [6],8 µg/mL
same,MIC S. pneumoniae ATCC 49619,S. pneumoniae ATCC 49619 [7],4 µg/mL
same,MIC C. difficile 132 (RT027),C. difficile 132 (RT027) [13],32 µg/mL
same,appearance in the solubility assay,[8],homogenous suspension
same,SR = solubility ratio relative to that of compound 1,[8],3
CC(C)CCc1cn(-c2c(OCC(=O)N[C@H](CCCNC(=N)N)Cn3cc(C4CCCCC4)nn3)ccc3ccccc23)nn1 [Compound 21],MIC,[14],> 32 µg/mL
same,MIC,E. coli ATCC 25922 [15],128 µg/mL
same,MIC,"E. faecalis ATCC 29212 [16]; Enterococcus faecalis, ATCC29212, read-out: MIC E. faecalis ATCC 29212",16 µg/mL
same,MIC E. faecalis ATCC 29212,E. faecalis ATCC 29212 [16],4 µg/mL
same,MIC,"C. albicans ATCC 90028; Candida albicans, ATCC90028, Table S1",32 µg/mL
same,MIC C. albicans ATCC 90028,C. albicans ATCC 90028; Table S1,> 32 µg/mL
same,HC50,"human erythrocytes; Table 1, lysis of human erythrocytes",>32 µg/mL
same,HC50,"human erythrocytes; Table S1, footnote says lysis of sheep erythrocytes",> 32 µg/mL
same,MIC,A. baumannii ATCC 19606,> 32 µg/mL
same,MIC,"E. coli ATCC 25922 [17]; Escherichia coli, ATCC25922, Table S1",32 µg/mL
same,MIC E. coli ATCC 25922,E. coli ATCC 25922 [17]; Table S1,> 32 µg/mL
same,MIC,S. aureus ATCC 29213 [18],8 µg/mL
same,MIC,C. difficile 132 (RT027) [19],> 128 µg/mL
same,MIC,"S. aureus ATCC 43300 [20]; Staphylococcus aureus, read-out: MIC S. aureus ATCC 43300",16 µg/mL
same,MIC S. aureus ATCC 43300,S. aureus ATCC 43300 [20],8 µg/mL
same,MIC,S. aureus NCTC 10442 [21],8 µg/mL
same,CC50,[22],> 32 µg/mL
same,CC50,HEK293 cells [23],>32 µg/mL
same,MIC,P. aeruginosa ATCC 27853,> 32 µg/mL
same,MIC,"S. pneumoniae ATCC 49619 [24]; Streptococcus pneumoniae, ATCC49619, read-out: MIC S. pneumoniae ATCC 49619",16 µg/mL
same,MIC S. pneumoniae ATCC 49619,S. pneumoniae ATCC 49619 [24],4 µg/mL
same,MIC,C. difficile ATCC 700057,128 µg/mL
